Assay results reported in patent US20180289655A1, “Methods and Compositions for the Intravenous Administration of Fumarates for the Treatment of Neurological Diseases” (Biogen MA Inc., priority 2015, published 2018).
Entries after “also recorded” stand apart in the source; their conditions may differ. Counter-ions that a name gives are not always drawn.

Key:
SOD1-G93A mice = assay: SOD1-G93A mouse model of ALS, oral DMF; type: in vivo; settings: DMF p.o. 100 mg/kg daily
Procedure: Motor performance was assessed by rotarod at day 85, 100, and 115. Health was monitored by clinical observation and body weight. […] Body weight was modestly impacted by DMF.
Thirty-two female SOD1-G93A mice were purchased from Jackson Laboratories (Line 2726). All mice were transgene positive. Sixteen mice were used per dosing group. Dosing began at day 50-55. All procedures were conducted in accordance with the NIH Guide for the Care and Use of Laboratory Animals and were approved by the Biogen Idec Institutional Animal Care and Use Committee (IACUC Protocol No. 0408-2011).
Mice were dosed once daily either with vehicle or DMF. Dosing volume was 10 ml/kg, introduced by oral gavage.
Disease onset and progression in the SOD1-G93A was monitored by three approaches. All approaches were done in a blinded fashion. Body weight was recorded on a daily basis. Mice were also inspected on a daily basis for disease onset, as defined by leg tremor or decreased hind limb flexion upon tail lift. Mice were also assessed on an accelerating rotarod test at weeks 12, 14, and 16. For this test, mice were first acclimated to a rod rotating at 2 rpm for 300 seconds once a day for two days. For the actual test, mice are placed on rod accelerating from 2 to 40 rpm over 90 seconds. Upon reaching full speed, the test continues for an additional 30 seconds. Mice were tested three times per day and the longest time recorded. Mice that were unable to remain on the rod for 20 seconds were excluded from further testing.
Mice were determined to have reached endpoint criteria for humane euthanasia when then when they failure to right from either side within 15 seconds.
For rotarod and body weight, values were compared by two-way ANOVA. Body weight was further evaluated by break point analysis. Break point analysis identifies the inflection point of a curve, by completing a series of linear regression fits. The intersection of the curve fits for the ascending and descending slopes with the minimal residual error is defined as the break point. For each mouse, the breakpoint was determined. The two groups were then compared by Student's T-test. Differences in onset and survival were tested for using the Mantel-Cox log rank test. A further test with the Cox proportional hazards test incorporating littermate status was completed.

[1] = tested on: malonate-induced striatal lesion in rats; assay: Immunofluorescence microscopy (NeuN, GFAP) of lesioned rat brain sections; type: in vivo, Sprague-Dawley rats; settings: DMF p.o. 100 mg/kg and vehicle
Procedure: For tissue to be analyzed by immunofluorescence, animals were anesthetized and transcardially perfused with 4% paraformaldehyde. Brains were removed and post-fixed overnight at 4° C. Tissue was then transferred to 30% sucrose in PBS. Serial 25-μM frozen sections were cut in the coronal plane and air-dried onto gelatin-coated glass slides. All tissue sections were washed in PBS and blocked with 5% normal goat serum in solution with 0.1% Triton X-100/PBS for 45 minutes at room temperature. Sections were then incubated with monoclonal anti-NeuN (1:500; Millipore, Temecula, Calif., USA) for neurons and polyclonal anti-glial fibrillary acidic protein (GFAP) (1:600) for astrocytes in blocking solution overnight at 4° C. Secondary antibody incubations were for 1 hour at room temperature. All immunofluorescence images were acquired with Openlab and Spectrum software.

[2] = MMF exposure in malonate model 30 min after last oral dose of DMF; type: in vivo, Sprague-Dawley rats; settings: 30 minutes after last oral dose of DMF, all doses
Procedure: The study and blank brain samples was transferred into Tissue Tubes (TT1) (purchased from Covaris, Inc) and attached to a borosilicate glass tube and placed on dry ice for a minimum of 15 minutes. The samples were pulverized using the Cryoprep System (Covaris Inc.) and transferred to glass tube prior to homogenization. For every 1 part (i.e. 100 mg) of tissue, 2 parts (i.e. 200 μL) of water with 15 mg/mL NaF was added to each glass tube. The tissues were homogenized at 4° C. using Covaris E210 for approximately 3 minutes per sample. The Covaris settings were as follows: Duty Cycle 20%, Intensity 10, and Cycles/Burst 1000. After homogenization […] acetonitrile was added to each glass tube, which was equal to the volume of water added in previously. The homogenates were homogenized with the E210 for an additional 30 sec per sample. […]
Study plasma samples were on ice. […] A 50 μL aliquot of sample (study samples, blank control, calibration standard or QC sample) was manually transferred into a 96-well plate according to a pre-determined layout. […]
The HPLC system used consisted of an Agilent 1200 binary pump with a Leap CTC PAL refrigerated autosampler. […] The instrument was equipped with TIS source in negative mode and the analyte was monitored in the MRM mode. […] The concentrations for unknown samples were calculated against Standards. […]

[3] = 24-hour equilibrium solubility of DMF in water; type: physicochemical; settings: thermodynamic from solid
Procedure: Samples were then filtrated at the measuring temperatures through a 0.2 μm filter unit, and the concentrations of the filtrate were determined using HPLC. The solids in equilibrium were confirmed, by FT-Raman technique, to be the same form as the starting material.

Q: For COC(=O)/C=C/C(=O)OC [DMF, dimethyl fumarate], which “Disease onset as assessed by limb splay” value (SOD1-G93A mice) is on record?
A: did not significantly change onset

Q: And the Survival (SOD1-G93A mice)?
A: did not prolong survival

Q: And the “Transition from weight gain to weight loss (breakpoint analysis)” value (SOD1-G93A mice; p<0.05)?
A: significantly delayed

Q: What about the Rotarod performance (SOD1-G93A mice; weeks 12, 14, 16) of the same compound?
A: did not alter rotarod performance

Q: And the “Astrocytes (GFAP) near the lesion border” value [1]?
A: Astrocytes appear to survive in both vehicle and DMF treated animals

Q: And the “MMF concentration in plasma, brain and CSF” value [2]?
A: significantly higher in the plasma as compared to both, the Brain and the CSF; also recorded: dose-dependent increase in plasma, CSF and brain concentration of MMF

Q: And the solubility at 24 h ([3]; 20 ° C., 24 hours)?
A: 2700 µg/mL

Q: And the solubility at 24 h ([3]; 35 ° C., 24 hours)?
A: 3500 µg/mL

Q: And the solubility at 24 h ([3]; 50 ° C., 24 hours)?
A: 5500 µg/mL

Q: And the solubility at 24 h ([3]; ambient temperature)?
A: 2700 µg/mL
